In publication PMC8235661, “Photoelectric Dye, NK-5962, as a Potential Drug for Preventing Retinal Neurons from Apoptosis: Pharmacokinetic Studies Based on Review of the Evidence” (Life, 2021):
Like-named read-outs stand apart in the source and are kept apart here.

Assays:
[1] = tested on: chick retinal cells including neurons and glial cells; assay: Cell viability assay using mixed culture of chick retinal neurons and glial cells (LIVE/DEAD stain); type: cell-based; settings: for percentage of dead cells in the exposure to light (mean): 2.78% in the absence of NK-5962
Text: Egg shells (Fukuda Breeders Co., Ltd., Okayama, Japan) were disinfected with 70% alcohol and 12-day-old chick embryos were removed from a small opening. The eyes at this embryonic stage were used because the outer segments of the retinal photoreceptor cells had not yet been developed. The eyes were enucleated and cut at the midperiphery of the globe and the anterior halves were removed together with the vitreous. The neurosensory retina at this embryonic stage could easily be peeled off from the eye cup. After peeling, retinal tissues were incubated in 0.25% trypsin, 1 mM ethylenediaminetetraacetic acid (EDTA) in Ca^2+, and Mg^2+-free Hanks’ balanced salt solution (HBSS) to disperse retinal cells. After centrifugation, the retinal cells were washed with Dulbecco’s modified Eagle’s medium (DMEM) and seeded at a concentration of 3.5 × 10^5 cell/mL in poly-L-lysine-coated wells of a 96-well multidish containing DMEM supplemented with 10% fetal bovine serum (FBS), 100 mg/L streptomycin, and 100 mg/L ampicillin.
In order to determine the types of cells, either neurons or glial cells derived from neurosensory retinal tissues, retinal cells following 2-day culture were stained for neuron-specific enolase and glial fibrillary acidic protein by immunocytochemistry. The majority of retinal cells at day 2 of the culture were neurons mixed with a small number of glial cells (Figure 2).
Retinal cells at a concentration of 3.5 × 10^5 cell/mL in 220 μL of DMEM with 10% FBS were cultured together with 20 μL of varying concentrations of NK-5962 for 2 days either under protection from light or under light from a fluorescent lamp at 230 lux for 9 h daily. The final concentrations of NK-5962 in the solution were 1.6 × 10^−5, 1.6 × 10^−6, and 1.6 × 10^−7 M. Cells were then incubated for 15 min with SYTO 10 Green fluorescent nucleic acid stain and DEAD Red nucleic acid stain (LIVE/DEAD Reduced Biohazard Viability/Cytotoxicity Kit: Molecular Probes; Thermo Fisher Scientific, Waltham, MA, USA) in HEPES-buffered saline. After being fixed with 4% glutaraldehyde in HEPES-buffered saline, live cells and dead cells were visualized with a 100 W mercury lamp as a light source under a fluorescence inverted microscope through a set of FITC and PI filters (Olympus IX71; Olympus Life Sciences, Tokyo, Japan). Images in the center of each well were captured with a CCD camera and stored in a computer. Three wells were assigned to each condition of incubation in one series of experiments and the entire procedure was repeated three times on different days to obtain nine results for each condition. Green live cells (stained with SYTO 10 Green) and orange dead cells (stained with both SYTO10 Green and DEAD RED) in the images for each well were counted and the percentage of dead cells to the total cells was analyzed statistically (Figure 2).

[2] = tested on: apoptotic cells in the retinal outer nuclear layer of RCS rats; assay: Intravitreous injection of NK-5962 in RCS rats, TUNEL assay of retinal outer nuclear layer; type: in vivo, rat
Experimental: NK-5962 powder was dissolved in distilled deionized water at a concentration of 8.2 μg/mL (16 μM). This original stock solution of NK-5962 (8.2 μg/mL) was diluted with saline (0.9% sodium chloride) to make a series of 10-fold dilutions from 8.2 × 10^−4 to 8.2 μg/mL. Twenty male pink-eyed RCS rats (RCS/Jcl-rdy/rdy, p-, CLEA Japan, Inc., Tokyo, Japan) at the age of 4 weeks were assigned to 5 groups (n = 4) that received NK-5962 at 5 different concentrations. Intravitreous injection was performed twice at the age of 4 and 5 weeks (Figure 4A). This study was approved by the Animal Care and Use Committee at the Okayama University (Identifier OKU-2013441) and based on the Animal Welfare and Management Act in Japan.
RCS rats were anesthetized by intraperitoneal injection of ketamine (87 mg/kg body weight, Daiichi Sankyo, Tokyo, Japan) and xylasine (13 mg/kg, Bayer Japan, Osaka, Japan). Mydriasis was induced by 0.5% tropicamide and 0.5% phenylephrine instillation (Santen Pharmaceutical, Osaka, Japan) and corneal anesthesia was further obtained with 0.4% oxybuprokaine instillation (Santen Pharmaceutical, Osaka, Japan). Under a dissecting microscope, 3 μL of NK-5962 solution and saline (0.9% sodium chloride) was injected into the vitreous of the left eye and the right eye, respectively, with a 30-gauge needle attached to a Hamilton syringe (50 μL 1705 LT SYR; Hamilton Company, Reno, NV, USA). The needle was inserted almost at a perpendicular angle and at 1mm from the corneoscleral limbus to avoid the damage to the lens. Antibiotic (0.5% moxifloxacin, Novartis Pharma Japan, Tokyo, Japan) eye drops were instilled for both eyes. Each rat was housed in a standard rat cage in the 12 h light and dark cycle at the Animal Center of Okayama University. In a separate experiment, 3 rats were placed and maintained in constant darkness after intravitreous injection of NK-5962 at a concentration of 8.2 μg/mL (16 μM).
Apoptotic cells were detected by terminal deoxynucleotidyl transferase-mediated fluorescein-conjugated dUTP nick-end-labeling (TUNEL) assay, according to the manufacturer’s instructions (In Situ Cell Death Detection Kit, Roche Diagnostics, Mannheim, Germany). The images at the constant exposure time were captured by an Olympus FSX100 microscope that was equipped with the fluorescent filter cube U-MWIBA3. Five photographs in each of 5 retinal vertical sections per eye were taken and an entire frame (220 × 165 μm) of each photograph with ×40 NA0.95 objective lens was used for measurements. The number of TUNEL-positive cells in the outer nuclear layer at each retinal site (a, b, c and d, Figure 4B) was counted in each frame of photographs. The number of TUNEL-positive cells per 1,000 μm^2 of the outer nuclear layer was calculated for comparison by two-factor ANOVA. […]

[3] = tested on: human chromosomal aberration; assay: Human chromosomal aberration test; type: cell-based
Eye irritation test = settings: in vivo
[4] = tested on: apoptotic cells in the retinal outer nuclear layer of RCS rats; set-up: method as in PMID 28085534; settings: cited from earlier work
[5] = 0.16 μM NK-5962, exposure to light
[6] = 1.6 μM NK-5962, exposure to light
[7] = 16 μM NK-5962, exposure to light

CCCCN(CCCC)c1ccc(C=Cc2sc3ccccc3[n+]2CC(=O)O)cc1.[Br-] [NK-5962, 2-[2-[4-(dibutylamino)phenyl]ethenyl]-3-carboxymethylbenzothiazolium bromide]
rate of the percentage of dead cells compared with the absence of NK-5962 [1, 5]: 105%
percentage of dead cells in the exposure to light (mean) [1, 5]: 2.93%
rate of the percentage of dead cells compared with the absence of NK-5962 [1, 6]: 68%
percentage of dead cells in the exposure to light (mean) [1, 6]: 1.89%
rate of the percentage of dead cells compared with the absence of NK-5962 [1, 7]: 42%
percentage of dead cells in the exposure to light (mean) [1, 7]: 1.17%
IC50 ([1]; Gallus gallus, corrected with non-binding ratio 0.34 in 10% FBS, read-out: IC50 based on free form of NK-5962): 1700 nM
percent ratio of the number of TUNEL-positive cells versus saline ([2]; 1.6 μM NK-5962 intravitreous): 61%
percent ratio of the number of TUNEL-positive cells versus saline ([2]; 16 μM NK-5962 intravitreous): 56%
EC50 ([2]; 16 μM × 3 μL / (3 + 13) μL, rat vitreous cavity estimated 13 μL, read-out: in vivo EC50 as intravitreous concentration): 3000 nM
EC50 ([2]; Rattus norvegicus, 3 μL intravitreous injection, read-out: EC50 (50% effective concentration), concentration of injected solution): ~16000 nM
genetic toxicity, human chromosomal aberration test [3]: not toxic
toxicity in the eye irritation test (Eye irritation test): not toxic
number of TUNEL-positive cells in the outer nuclear layer of the four retinal sites (a + b + c + d) ([4]; 1.6 μM NK-5962 intravitreous, saline 139): 85
number of TUNEL-positive cells in the outer nuclear layer of the four retinal sites (a + b + c + d) ([4]; 16 μM NK-5962 intravitreous, saline 129): 72
number of TUNEL-positive cells in the outer nuclear layer compared to saline-injected eyes ([4]; intravitreous 16 μM, constant dark condition, P = 0.0001): significantly less
TUNEL-positive cells in the outer nuclear layer compared to the saline-injected eyes ([4]; intravitreous 3 μL twice, 16 to 16 × 10^−2 μM, 12 h light/dark cycle): significantly less
